Data published in paper PMC5218480 (PLoS ONE, 2017).

Test system: MV-4-11 cells
Assay: Gene expression microarray analysis (Affymetrix PrimeView) and GSEA
Type: cell-based, human
Parameters: RFU PODN (11730768_x_at) / Fold change /veh PODN (11730768_x_at) / RFU LINC00158 (11744669_a_at) / Fold change /veh LINC00158 (11744669_a_at) / RFU DUSP10 (11751237_a_at) / Fold change /veh DUSP10 (11751237_a_at) / RFU ID3 (11757404_x_at) / Fold change /veh ID3 (11757404_x_at) / RFU PLEKHG5 (11737974_s_at) / Fold change /veh PLEKHG5 (11737974_s_at) / RFU LRRC4B (11730491_at) / Fold change /veh LRRC4B (11730491_at) / RFU GIMAP4 (11747438_a_at) / Fold change /veh GIMAP4 (11747438_a_at) / RFU KRT8 (11758183_x_at) / Fold change /veh KRT8 (11758183_x_at) / RFU CNN1 (11734310_a_at) / Fold change /veh CNN1 (11734310_a_at) / RFU VPS37D (11726825_at) / Fold change /veh VPS37D (11726825_at) / RFU C10orf10 (11716522_x_at) / Fold change /veh C10orf10 (11716522_x_at) / RFU KIR2DL2 /// KIR2DL4 /// KIR2DL5A /// KIR2DL5B /// KIR2DS1 /// KIR2DS2 /// KIR2DS3 /// KIR2DS4 /// KIR3DL3 /// KIR3DL3 /// KIR3DS1 (11738374_at) / Fold change /veh KIR2DL2 /// KIR2DL4 /// KIR2DL5A /// KIR2DL5B /// KIR2DS1 /// KIR2DS2 /// KIR2DS3 /// KIR2DS4 /// KIR3DL3 /// KIR3DL3 /// KIR3DS1 (11738374_at) / RFU C1QL1 (11718748_at) / Fold change /veh C1QL1 (11718748_at) / RFU TMPRSS4 (11747572_a_at) / Fold change /veh TMPRSS4 (11747572_a_at) / RFU HAMP (11756126_x_at) / Fold change /veh HAMP (11756126_x_at) / RFU RNFT2 (11725882_a_at) / Fold change /veh RNFT2 (11725882_a_at) / RFU NR4A2 (11747474_a_at) / Fold change /veh NR4A2 (11747474_a_at) / RFU ABCC12 (11746883_a_at) / Fold change /veh ABCC12 (11746883_a_at) / RFU TMEM136 (11760407_x_at) / Fold change /veh TMEM136 (11760407_x_at) / RFU CLDN22 /// WWC2 (11732394_at) / Fold change /veh CLDN22 /// WWC2 (11732394_at) / RFU HLA-DPB1 (11760878_x_at) / Fold change /veh HLA-DPB1 (11760878_x_at) / RFU SPINT1 (11716480_a_at) / Fold change /veh SPINT1 (11716480_a_at) / RFU GAP43 (11754022_s_at) / Fold change /veh GAP43 (11754022_s_at) / RFU A4GNT (11735810_at) / Fold change /veh A4GNT (11735810_at) / RFU PRB3 (11715151_x_at) / Fold change /veh PRB3 (11715151_x_at) / RFU TUBB4B (11761932_at) / Fold change /veh TUBB4B (11761932_at) / RFU CAPN14 (11732068_a_at) / Fold change /veh CAPN14 (11732068_a_at) / RFU TMCC2 (11721928_a_at) / Fold change /veh TMCC2 (11721928_a_at) / RFU IRGQ (11745062_a_at) / Fold change /veh IRGQ (11745062_a_at) / RFU FAM174B (11720279_a_at) / Fold change /veh FAM174B (11720279_a_at) / RFU TMPRSS4 (11748680_a_at) / Fold change /veh TMPRSS4 (11748680_a_at) / RFU FAM212B (11763350_a_at) / Fold change /veh FAM212B (11763350_a_at) / RFU PLEKHG5 (11743358_a_at) / Fold change /veh PLEKHG5 (11743358_a_at) / RFU ZSCAN30 (11745921_a_at) / Fold change /veh ZSCAN30 (11745921_a_at) / RFU CMKLR1 (11741424_a_at) / Fold change /veh CMKLR1 (11741424_a_at) / RFU LOC101060620 /// MAPK8IP1 (11723275_at) / Fold change /veh LOC101060620 /// MAPK8IP1 (11723275_at) / RFU SPTSSB (11747773_x_at) / Fold change /veh SPTSSB (11747773_x_at) / RFU PRSS12 (11739890_at) / Fold change /veh PRSS12 (11739890_at) / RFU BIN1 (11741810_x_at) / Fold change /veh BIN1 (11741810_x_at) / RFU WNT11 (11732464_a_at) / Fold change /veh WNT11 (11732464_a_at) / RFU C10orf10 (11716521_a_at) / Fold change /veh C10orf10 (11716521_a_at) / RFU C5orf56 (11738089_at) / Fold change /veh C5orf56 (11738089_at) / RFU CYB561 (11721691_x_at) / Fold change /veh CYB561 (11721691_x_at) / RFU ANKRD19P (11752326_a_at) / Fold change /veh ANKRD19P (11752326_a_at) / RFU OR2T12 /// OR2T33 /// OR2T8 (11738714_s_at) / Fold change /veh OR2T12 /// OR2T33 /// OR2T8 (11738714_s_at) / RFU VCAN (11748164_a_at) / Fold change /veh VCAN (11748164_a_at) / RFU JSRP1 (11732532_at) / Fold change /veh JSRP1 (11732532_at) / RFU KRTAP10-11 (11738290_x_at) / Fold change /veh KRTAP10-11 (11738290_x_at) / RFU MYO3A (11730013_a_at) / Fold change /veh MYO3A (11730013_a_at) / RFU EBF3 (11725865_a_at) / Fold change /veh EBF3 (11725865_a_at) / RFU CAMK2N1 (11719241_x_at) / Fold change /veh CAMK2N1 (11719241_x_at) / RFU C5orf56 (11738088_a_at) / Fold change /veh C5orf56 (11738088_a_at) / RFU OLFML3 (11715873_a_at) / Fold change /veh OLFML3 (11715873_a_at) / RFU LOC100653217 /// NTM (11731650_a_at) / Fold change /veh LOC100653217 /// NTM (11731650_a_at) / RFU MAPK11 (11762145_a_at) / Fold change /veh MAPK11 (11762145_a_at) / RFU FIZ1 (11724087_x_at) / Fold change /veh FIZ1 (11724087_x_at) / RFU OASL (11726364_x_at) / Fold change /veh OASL (11726364_x_at) / RFU SOX15 (11748057_x_at) / Fold change /veh SOX15 (11748057_x_at) / RFU CD79A (11719716_a_at) / Fold change /veh CD79A (11719716_a_at) / RFU HIST1H1D (11736915_at) / Fold change /veh HIST1H1D (11736915_at) / RFU CASKIN2 (11723855_a_at) / Fold change /veh CASKIN2 (11723855_a_at) / RFU LOC730098 (11760151_x_at) / Fold change /veh LOC730098 (11760151_x_at) / RFU OR4N2 (11742367_at) / Fold change /veh OR4N2 (11742367_at) / RFU PRRT2 (11749266_a_at) / Fold change /veh PRRT2 (11749266_a_at) / RFU SNX32 (11753110_a_at) / Fold change /veh SNX32 (11753110_a_at) / RFU CDHR5 (11726645_a_at) / Fold change /veh CDHR5 (11726645_a_at) / RFU RCAN1 (11760418_a_at) / Fold change /veh RCAN1 (11760418_a_at) / RFU FAM167A (11723789_a_at) / Fold change /veh FAM167A (11723789_a_at) / RFU FAM26E (11764081_at) / Fold change /veh FAM26E (11764081_at) / RFU ISYNA1 (11749810_s_at) / Fold change /veh ISYNA1 (11749810_s_at) / RFU ACY1 (11761880_at) / Fold change /veh ACY1 (11761880_at) / RFU 11764098_at / Fold change /veh 11764098_at / RFU SAMD14 (11745864_x_at) / Fold change /veh SAMD14 (11745864_x_at) / RFU NPB (11741838_a_at) / Fold change /veh NPB (11741838_a_at) / RFU TMPRSS6 (11731388_a_at) / Fold change /veh TMPRSS6 (11731388_a_at) / RFU KRTAP10-2 (11738614_at) / Fold change /veh KRTAP10-2 (11738614_at) / RFU ARHGAP8 /// PRR5-ARHGAP8 (11727945_x_at) / Fold change /veh ARHGAP8 /// PRR5-ARHGAP8 (11727945_x_at) / RFU KRTAP5-7 /// NADSYN1 (11734609_at) / Fold change /veh KRTAP5-7 /// NADSYN1 (11734609_at) / RFU RASL12 (11751679_a_at) / Fold change /veh RASL12 (11751679_a_at) / RFU CDKN2B (11736163_a_at) / Fold change /veh CDKN2B (11736163_a_at) / RFU PRF1 (11729649_at) / Fold change /veh PRF1 (11729649_at) / RFU, ZNF638 /// ZNF638-IT1 / Fold change vs veh, ZNF638 /// ZNF638-IT1 / RFU, PANK3 / Fold change vs veh, PANK3 / RFU, SH3YL1 / Fold change vs veh, SH3YL1 / RFU, ZEB2 / Fold change vs veh, ZEB2 / RFU, NRIP1 / Fold change vs veh, NRIP1 / RFU, PTTG1IP / Fold change vs veh, PTTG1IP / RFU, CAPN2 / Fold change vs veh, CAPN2 / RFU, MED14 / Fold change vs veh, MED14 / RFU, SNORA58 / Fold change vs veh, SNORA58 / RFU, C1orf63 / Fold change vs veh, C1orf63 / RFU, LRRFIP1 / Fold change vs veh, LRRFIP1 / RFU, NDUFAF7 / Fold change vs veh, NDUFAF7 / RFU, SLC12A2 / Fold change vs veh, SLC12A2 / RFU, IBTK / Fold change vs veh, IBTK / RFU, ESF1 / Fold change vs veh, ESF1 / Fold change vs veh, TMEM50B / RFU, TAOK1 / Fold change vs veh, TAOK1 / RFU, ACBD3 / Fold change vs veh, ACBD3 / RFU, TMA16 / Fold change vs veh, TMA16 / RFU, RWDD3 / Fold change vs veh, RWDD3 / RFU, BCAT1 / Fold change vs veh, BCAT1 / RFU, EDEM3 / Fold change vs veh, EDEM3 / RFU, TMEM33 / Fold change vs veh, TMEM33 / RFU, WDR75 / Fold change vs veh, WDR75 / RFU, AHCTF1 / Fold change vs veh, AHCTF1 / RFU, TFRC / Fold change vs veh, TFRC / RFU, ZDHHC17 / Fold change vs veh, ZDHHC17 / RFU, NOM1 / Fold change vs veh, NOM1 / RFU, ARL8B / Fold change vs veh, ARL8B / RFU, ZBTB11 / Fold change vs veh, ZBTB11 / RFU, TAMM41 / Fold change vs veh, TAMM41 / RFU, KIAA1704 /// LOC100996395 / Fold change vs veh, KIAA1704 /// LOC100996395 / RFU, ING1 / Fold change vs veh, ING1 / RFU, TRMT61B / Fold change vs veh, TRMT61B / RFU, FUBP3 / Fold change vs veh, FUBP3 / RFU, TP53 / Fold change vs veh, TP53 / RFU, TNKS2 / Fold change vs veh, TNKS2 / RFU, ZFP14 / Fold change vs veh, ZFP14 / RFU, ACTR2 / Fold change vs veh, ACTR2 / RFU, PPP3R1 / Fold change vs veh, PPP3R1 / RFU, PIK3R1 / Fold change vs veh, PIK3R1 / RFU, HNRNPA1 / Fold change vs veh, HNRNPA1 / RFU, RNF170 / Fold change vs veh, RNF170 / RFU, ZNF28 / Fold change vs veh, ZNF28 / RFU, RNGTT / Fold change vs veh, RNGTT / RFU, OGT / Fold change vs veh, OGT / RFU, BRD1 / Fold change vs veh, BRD1 / RFU, MARS / Fold change vs veh, MARS / RFU, ZNF655 / Fold change vs veh, ZNF655 / RFU, FAHD1 / Fold change vs veh, FAHD1 / RFU, BDP1 / Fold change vs veh, BDP1 / RFU, LRRCC1 / Fold change vs veh, LRRCC1 / RFU, ARID1A / Fold change vs veh, ARID1A / RFU, ZNF146 / Fold change vs veh, ZNF146 / RFU, ZNF330 / Fold change vs veh, ZNF330 / RFU, GPN3 / Fold change vs veh, GPN3 / RFU, C9orf123 / Fold change vs veh, C9orf123 / RFU, N4BP2L2 / Fold change vs veh, N4BP2L2 / RFU, ARFIP1 / Fold change vs veh, ARFIP1 / RFU, FAM179B / Fold change vs veh, FAM179B / RFU, BCL10 / Fold change vs veh, BCL10 / RFU, UHRF1BP1L / Fold change vs veh, UHRF1BP1L / RFU, BET1 / Fold change vs veh, BET1 / RFU, CNOT2 / Fold change vs veh, CNOT2 / RFU, ZNF268 / Fold change vs veh, ZNF268 / Fold change vs veh, ZNF507 / RFU, DGCR2 / Fold change vs veh, DGCR2 / RFU, WDSUB1 / Fold change vs veh, WDSUB1 / Fold change vs veh, HSP90B1 /// MIR3652 / RFU, ADSS / Fold change vs veh, ADSS / RFU, GK / Fold change vs veh, GK / RFU, ZNF148 / Fold change vs veh, ZNF148 / RFU, TAF9 / Fold change vs veh, TAF9 / RFU, SLC1A5 / Fold change vs veh, SLC1A5 / RFU, SLMO2 / Fold change vs veh, SLMO2 / RFU, ABCC4 / Fold change vs veh, ABCC4 / RFU, LOC101060439 /// RAP1B / Fold change vs veh, LOC101060439 /// RAP1B / RFU, RFX7 / Fold change vs veh, RFX7 / RFU, GTPBP10 / Fold change vs veh, GTPBP10 / RFU, CNEP1R1 / Fold change vs veh, CNEP1R1 / RFU, BIVM-ERCC5 /// ERCC5 / Fold change vs veh, BIVM-ERCC5 /// ERCC5 / RFU, ILF3 / Fold change vs veh, ILF3 / RFU 11762660_at / Fold change /veh 11762660_at / RFU VCAN (11757783_s_at) / Fold change /veh VCAN (11757783_s_at) / RFU DDX43 (11728927_at) / Fold change /veh DDX43 (11728927_at) / RFU KRT8 (11758188_x_at) / Fold change /veh KRT8 (11758188_x_at) / RFU NKD1 (11759106_at) / Fold change /veh NKD1 (11759106_at) / RFU SRD5A1 (11742802_a_at) / Fold change /veh SRD5A1 (11742802_a_at) / RFU TPSAB1 /// TPSB2 (11721975_s_at) / Fold change /veh TPSAB1 /// TPSB2 (11721975_s_at) / RFU GSTM3 (11746129_a_at) / Fold change /veh GSTM3 (11746129_a_at) / RFU IL23R (11737362_x_at) / Fold change /veh IL23R (11737362_x_at) / RFU TMEM51 (11727254_a_at) / Fold change /veh TMEM51 (11727254_a_at) / RFU PIWIL2 (11732686_x_at) / Fold change /veh PIWIL2 (11732686_x_at) / RFU ORM1 (11744905_x_at) / Fold change /veh ORM1 (11744905_x_at) / RFU CCDC152 (11743942_at) / Fold change /veh CCDC152 (11743942_at) / RFU ECM1 (11717891_a_at) / Fold change /veh ECM1 (11717891_a_at) / RFU IL23R (11748794_a_at) / Fold change /veh IL23R (11748794_a_at) / RFU TNFAIP8L3 (11732012_x_at) / Fold change /veh TNFAIP8L3 (11732012_x_at) / RFU MBOAT4 (11741988_at) / Fold change /veh MBOAT4 (11741988_at) / RFU 11764193_at / Fold change /veh 11764193_at / RFU TMEM53 (11763286_at) / Fold change /veh TMEM53 (11763286_at) / RFU MAGEB2 (11727129_at) / Fold change /veh MAGEB2 (11727129_at) / RFU TMEM200A (11744735_a_at) / Fold change /veh TMEM200A (11744735_a_at) / RFU CCDC152 (11751479_a_at) / Fold change /veh CCDC152 (11751479_a_at) / RFU FAM211A (11726209_a_at) / Fold change /veh FAM211A (11726209_a_at) / RFU RGS16 (11746705_a_at) / Fold change /veh RGS16 (11746705_a_at) / RFU VCAN (11755009_s_at) / Fold change /veh VCAN (11755009_s_at) / RFU RHOB (11743442_s_at) / Fold change /veh RHOB (11743442_s_at) / RFU RGS16 (11720943_a_at) / Fold change /veh RGS16 (11720943_a_at) / RFU RGS16 (11720944_at) / Fold change /veh RGS16 (11720944_at) / RFU, VPS4B / Fold change vs veh, VPS4B / RFU, CREB1 / Fold change vs veh, CREB1 / RFU, DNAJC13 / Fold change vs veh, DNAJC13 / RFU, GNAQ / Fold change vs veh, GNAQ / RFU, CDK5R1 / Fold change vs veh, CDK5R1 / RFU, ZRANB3 / Fold change vs veh, ZRANB3 / RFU, CUL4A / Fold change vs veh, CUL4A / RFU, CCNY / Fold change vs veh, CCNY / RFU, UFL1 / Fold change vs veh, UFL1 / RFU, COG3 / Fold change vs veh, COG3 / RFU, DIAPH2 / Fold change vs veh, DIAPH2 / RFU, SKA2 / Fold change vs veh, SKA2 / RFU, AFF3 / Fold change vs veh, AFF3 / RFU, LMF1 / Fold change vs veh, LMF1 / RFU, IPO11 / Fold change vs veh, IPO11 / RFU, DFFB / Fold change vs veh, DFFB / RFU, FOXP1 / Fold change vs veh, FOXP1 / RFU, CARD8 / Fold change vs veh, CARD8 / RFU, STRN3 / Fold change vs veh, STRN3 / RFU, ADK / Fold change vs veh, ADK / RFU, RASSF2 / Fold change vs veh, RASSF2 / RFU, WIPF1 / Fold change vs veh, WIPF1 / RFU, LARP1B / Fold change vs veh, LARP1B / RFU, RASA1 / Fold change vs veh, RASA1 / RFU, RB1 / Fold change vs veh, RB1 / RFU, PPFIA1 / Fold change vs veh, PPFIA1 / RFU, MAT2A / Fold change vs veh, MAT2A / RFU, CCT5 / Fold change vs veh, CCT5 / RFU, WDR92 / Fold change vs veh, WDR92 / RFU, CUX1 / Fold change vs veh, CUX1 / RFU, TTC7A / Fold change vs veh, TTC7A / RFU, TMEM135 / Fold change vs veh, TMEM135 / RFU, DEPTOR / Fold change vs veh, DEPTOR / RFU, CPM / Fold change vs veh, CPM / RFU, DNAJB6 / Fold change vs veh, DNAJB6 / RFU, CACNA2D3 / Fold change vs veh, CACNA2D3 / RFU, DTX4 / Fold change vs veh, DTX4 / RFU, TFCP2 / Fold change vs veh, TFCP2 / RFU, GMCL1 /// GMCL1P1 / Fold change vs veh, GMCL1 /// GMCL1P1 / RFU, AEBP2 / Fold change vs veh, AEBP2 / RFU, SNHG1 /// SNORD22 /// SNORD25 /// SNORD26 /// SNORD27 /// SNORD28 /// SNORD29 /// SNORD31 / Fold change vs veh, SNHG1 /// SNORD22 /// SNORD25 /// SNORD26 /// SNORD27 /// SNORD28 /// SNORD29 /// SNORD31 / Fold change (Aza/veh), C12orf56 (ProbeSet 11735607_a_at) / Fold change (ACY-1035/veh), C12orf56 (ProbeSet 11735607_a_at) / Fold change (Aza/veh), FGFR1OP (ProbeSet 11751329_s_at) / Fold change (ACY-1035/veh), FGFR1OP (ProbeSet 11751329_s_at) / Fold change (Aza/veh), VPS36 (ProbeSet 11739960_a_at) / Fold change (ACY-1035/veh), VPS36 (ProbeSet 11739960_a_at) / RFU SYPL1 (11715823_x_at) / Fold change /veh SYPL1 (11715823_x_at) / RFU IGFBP7 (11715501_s_at) / Fold change /veh IGFBP7 (11715501_s_at) / RFU REEP3 (11722064_at) / Fold change /veh REEP3 (11722064_at) / RFU IGLL1 (11728026_x_at) / Fold change /veh IGLL1 (11728026_x_at): dose or concentration left out as unconfirmed
Conditions: MV-4-11 cells, 48 hours

`Nc1ccc(-c2cccs2)cc1NC(=O)c1ccc2c(c1)cc(C1CC1)n2CCN1CCOCC1` [ACY-1035] was tested, and the “Fold change /veh 11762660_at” value was 0.98.
